Measured values from the NIST ThermoML archive (doi:10.1016/j.fluid.2011.01.012).
Numbers after ± are expanded uncertainties.

assay: not given; settings: 293.15 K; 101.33 kPa; Liquid; Vibrating tube method

Row | mass density | SMILES
1 | 1040.22 ± 0.36 kg/m3 | CCOC(=O)CCC(=O)OCC [diethyl butanedioate]
2 | 1022.04 ± 0.92 kg/m3 | CCOC(=O)CCCC(=O)OCC [diethyl glutarate]
3 | 1007.63 ± 0.34 kg/m3 | CCOC(=O)CCCCC(=O)OCC [diethyl hexanedioate]
4 | 999.9 ± 0.24 kg/m3 | O [water]

same assay, conditions: Liquid; Fischer Boiling Piont Apparatus

Row | Normal boiling temperature | SMILES
5 | 217.7 ± 1 °C | CCOC(=O)CCC(=O)OCC [diethyl butanedioate]
6 | 236.5 ± 1 °C | CCOC(=O)CCCC(=O)OCC [diethyl glutarate]
7 | 245.1 ± 1 °C | CCOC(=O)CCCCC(=O)OCC [diethyl hexanedioate]
8 | 100.1 ± 1 °C | O [water]

assay: refractive index (Na D-line) (dimensionless); settings: 293.15 K; 101.33 kPa; Liquid; Standard Abbe refractometry

Row | refractive index | SMILES
9 | 1.42014 ± 0.00039 | CCOC(=O)CCC(=O)OCC [diethyl butanedioate]
10 | 1.42414 ± 0.00052 | CCOC(=O)CCCC(=O)OCC [diethyl glutarate]
11 | 1.42725 ± 0.00039 | CCOC(=O)CCCCC(=O)OCC [diethyl hexanedioate]
12 | 1.3324 ± 0.00033 | O [water]
